Source: US9416126B2, “Compounds inhibiting leucine-rich repeat kinase enzyme activity” (Merck Sharp & Dohme Corp., priority 2013, dated 2016)

target: LRRK2(G2019S mutation, GST-LRRK2(amino acids 970-2527)) (Homo sapiens (Human), UniProt Q5S007, G2019S); assay: LRRK2 Km ATP LanthaScreen Assay; format: biochemical; settings: Examples N1-N25
Procedure, shortened: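 TR-FRET: GST-LRRK2 970-2527 G2019S (2.5 nM solution) preincubated 30 min with compound (98 μM top, 1:2.15 dilutions), then 800 nM fluorescein-LRRKtide and 184 μM ATP solution added for 60 min at room temperature in Tris pH 8.5 buffer. Stopped with EDTA and Tb anti-phospho-LRRKtide antibody; IC50 is a mean of several tests.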

Chain of LRRK2(G2019S mutation, GST-LRRK2(amino acids 970-2527)) (Q5S007 970-2527 G2019S): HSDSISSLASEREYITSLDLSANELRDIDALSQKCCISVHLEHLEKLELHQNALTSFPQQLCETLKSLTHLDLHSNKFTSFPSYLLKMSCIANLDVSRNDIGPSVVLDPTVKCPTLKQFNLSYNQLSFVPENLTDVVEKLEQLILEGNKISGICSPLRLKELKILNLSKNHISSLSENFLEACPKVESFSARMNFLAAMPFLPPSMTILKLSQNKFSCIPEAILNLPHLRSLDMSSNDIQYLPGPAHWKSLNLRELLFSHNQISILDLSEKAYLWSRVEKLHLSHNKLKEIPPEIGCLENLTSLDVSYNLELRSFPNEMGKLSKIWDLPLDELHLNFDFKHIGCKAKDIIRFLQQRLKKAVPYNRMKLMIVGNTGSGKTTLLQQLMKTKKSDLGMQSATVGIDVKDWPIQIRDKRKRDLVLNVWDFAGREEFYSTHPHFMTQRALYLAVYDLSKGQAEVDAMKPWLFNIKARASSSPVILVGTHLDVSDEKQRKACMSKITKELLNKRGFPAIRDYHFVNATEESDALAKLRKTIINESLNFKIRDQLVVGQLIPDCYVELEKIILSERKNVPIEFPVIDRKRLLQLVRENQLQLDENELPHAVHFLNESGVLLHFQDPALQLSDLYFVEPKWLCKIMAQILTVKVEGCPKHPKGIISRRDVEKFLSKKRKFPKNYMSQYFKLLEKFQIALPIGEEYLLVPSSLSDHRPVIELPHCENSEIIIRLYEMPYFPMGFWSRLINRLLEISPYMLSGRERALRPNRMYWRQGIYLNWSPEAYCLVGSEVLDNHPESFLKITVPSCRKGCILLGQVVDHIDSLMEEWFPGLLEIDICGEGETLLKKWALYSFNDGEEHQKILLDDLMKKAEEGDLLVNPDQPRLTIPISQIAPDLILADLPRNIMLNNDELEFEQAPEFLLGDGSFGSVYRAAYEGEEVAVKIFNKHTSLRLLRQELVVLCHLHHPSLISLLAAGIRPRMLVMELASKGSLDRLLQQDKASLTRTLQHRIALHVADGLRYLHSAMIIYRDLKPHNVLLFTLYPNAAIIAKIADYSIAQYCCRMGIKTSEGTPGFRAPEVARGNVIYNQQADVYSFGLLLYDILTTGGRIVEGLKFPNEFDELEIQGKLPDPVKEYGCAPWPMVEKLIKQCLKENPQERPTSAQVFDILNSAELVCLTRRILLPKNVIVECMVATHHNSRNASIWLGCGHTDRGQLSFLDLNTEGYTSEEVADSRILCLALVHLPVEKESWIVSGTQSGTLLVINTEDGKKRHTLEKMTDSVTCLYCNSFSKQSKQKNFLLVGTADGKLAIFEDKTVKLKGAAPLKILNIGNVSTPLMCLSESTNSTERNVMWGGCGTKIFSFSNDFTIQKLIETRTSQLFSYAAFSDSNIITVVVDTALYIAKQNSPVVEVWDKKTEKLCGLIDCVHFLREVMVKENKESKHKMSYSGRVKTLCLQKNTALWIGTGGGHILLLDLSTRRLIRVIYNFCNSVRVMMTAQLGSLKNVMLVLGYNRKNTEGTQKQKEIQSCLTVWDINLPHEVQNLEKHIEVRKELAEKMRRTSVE

Structure (SMILES) | IC50
CC(C)Oc1cc2c(-c3cc(N4CCOC(C)(C)C4)ncn3)n[nH]c2cc1F [Example N15] | 6.2 nM
CC(C)Oc1cc2c(-c3cc(N4CC[C@H](N(C)C)C4)ncn3)n[nH]c2cc1F [Example N22] | 7 nM
CC(C)Oc1cc2c(-c3cc(N4CC[C@H](CO)C4)ncn3)n[nH]c2cc1F [Example N6] | 10.2 nM
CC(C)Oc1cc2c(-c3cc(N4CC[C@@H](CO)C4)ncn3)n[nH]c2cc1F [Example N7] | 2.9 nM
CC(C)Oc1cc2c(-c3cc(N4CC[S+]([O-])CC4)ncn3)n[nH]c2cc1F [Example N9] | 6.1 nM

same assay, conditions: Examples O1-O23

Structure (SMILES) | IC50
COC[C@H](C)Oc1ccc2[nH]nc(-c3cc(N4CCN5C(=O)OCC5C4)ncn3)c2c1 (stereo partly drawn) [Example O20] | 8.8 nM
COC[C@H](C)Oc1ccc2[nH]nc(-c3cc(N4CC(F)(F)C4)ncn3)c2c1 [Example O14] | 7.6 nM
COC[C@H](C)Oc1ccc2[nH]nc(-c3cc(N4C[C@H](F)[C@@H](F)C4)ncn3)c2c1 [Example O12] | 7.9 nM
COC[C@H](C)Oc1ccc2[nH]nc(-c3cc(N4CCN(C5CC5)CC4)ncn3)c2c1 [Example O11] | 4.1 nM
COC[C@H](C)Oc1ccc2[nH]nc(-c3cc(N4CCOC(C(F)(F)F)C4)ncn3)c2c1 (stereo partly drawn) [Example O5] | 8.6 nM
COC[C@H](C)Oc1ccc2[nH]nc(-c3cc(N4CCN(C)C(=O)C4)ncn3)c2c1 [Example O9] | 10.9 nM
COC[C@H](C)Oc1ccc2[nH]nc(-c3cc(N4CC[C@@H](CF)C4)ncn3)c2c1 [Example O3] | 2.7 nM
COC[C@H](C)Oc1ccc2[nH]nc(-c3cc(N4CCC5(CC4)CNC(=O)CO5)ncn3)c2c1 [Example O23] | 3.5 nM
COC[C@H](C)Oc1ccc2[nH]nc(-c3cc(N4CCOC[C@@H]4C)ncn3)c2c1 [Example O16] | 6 nM

same assay, conditions: Examples P1-P18

Structure (SMILES) | IC50
c1ncc(-c2ccc3[nH]nc(-c4cc(N5CCOCC5)ncn4)c3c2)cn1 [Example P5] | 40.7 nM
COc1cncc(-c2ccc3[nH]nc(-c4cc(N5CCOCC5)ncn4)c3c2)n1 [Example P11] | 18.3 nM

same assay, conditions: Examples Q1-Q20

Structure (SMILES) | IC50
CCN(CC)C(=O)c1ccc(-c2ccc3[nH]nc(-c4cc(N5C[C@@H](C)O[C@@H](C)C5)ncn4)c3c2)cc1 [Example Q20] | 847 nM
COc1ncccc1-c1ccc2[nH]nc(-c3cc(N4C[C@@H](C)O[C@@H](C)C4)ncn3)c2c1 [Example Q2] | 158 nM
C[C@@H]1CN(c2cc(-c3n[nH]c4ccc(-c5ccc(C(=O)NCCO)cc5)cc34)ncn2)C[C@H](C)O1 [Example Q17] | 77 nM
C[C@@H]1CN(c2cc(-c3n[nH]c4ccc(-c5ccnn5C)cc34)ncn2)C[C@H](C)O1 [Example Q3] | 32.1 nM

same assay, conditions: Km ATP (184 μM ATP solution), G2019S LRRK2, mean IC50

Structure (SMILES) | IC50
CCS(=O)(=O)N1CCN(c2cc(-c3n[nH]c4cc(F)c(OC(C)C)cc34)ncn2)CC1 [Example D68] | 2.24 nM
CN(C)[C@@H]1CCN(c2cc(-c3n[nH]c4cc(F)c(-c5cnn(C)c5)cc34)ncn2)C1 [Example L24] | 58 nM
CCCN1CCN(c2cc(-c3n[nH]c4ccc(OC(C)C)cc34)ncn2)CC1=O [Example D34] | 4.39 nM
Cn1cc(-c2ccc3[nH]nc(-c4cc(N5CCOC(C)(C)C5)ncn4)c3c2)cn1 [Example M20] | 8.9 nM
Cn1cc(-c2cc3c(-c4cc(N5C[C@@H](F)[C@H](F)C5)ncn4)n[nH]c3cc2F)cn1 [Example L14] | 29.9 nM
CO[C@H]1CN(c2cc(-c3n[nH]c4ccc(-c5cnn(C)c5)cc34)ncn2)C[C@@H]1O [Example M23] | 6 nM
COCCOC1CCN(c2cc(-c3n[nH]c4ccc(-c5cnn(C)c5)cc34)ncn2)CC1 [Example A9] | 1.87 nM
Cn1cc(-c2ccc3[nH]nc(-c4cc(N5CCC(F)(CO)CC5)ncn4)c3c2)cn1 [Example M24] | 2.9 nM
CC(C)=Cc1ccc2[nH]nc(-c3cc(N4C[C@@H](C)O[C@@H](C)C4)ncn3)c2c1 [Example S5] | 20.3 nM
CCN1CCN(c2cc(-c3n[nH]c4ccc(OC)cc34)ncn2)CC1 [Example E8] | 24.3 nM
CC(C)Oc1ccc2[nH]nc(-c3cc(N4CCN(C(C)C)CC4)ncn3)c2c1 [Example D17] | 7.68 nM
CC(C)Oc1ccc2[nH]nc(-c3cc(N4CC5CCC(C4)O5)ncn3)c2c1 [Example D8] | 29.2 nM
Cn1cc(-c2cc3c(-c4cc(N5CCN(CCCO)CC5)ncn4)n[nH]c3cc2F)cn1 [Example L25] | 12.6 nM
CN1CCN(c2cc(-c3n[nH]c4ccc(-c5cnn(C)c5)cc34)ncn2)CC1=O [Example A5] | 4.91 nM
CC(C)Oc1ccc2[nH]nc(-c3cc(N4CC[C@H](N)C4)ncn3)c2c1 [Example D44] | 6.68 nM
Cn1cc(-c2cc3c(-c4cc(N5CCC(F)(F)C5)ncn4)n[nH]c3cc2F)cn1 [Example L6] | 70.9 nM
CC(C)Oc1ccc2[nH]nc(-c3cc(N4CC[S+]([O-])CC4)ncn3)c2c1 [Example D4] | 11.5 nM
COc1ccc2[nH]nc(-c3cc(N4CCO[C@@H](C)C4)ncn3)c2c1 [Example E13] | 76.9 nM
CC(C)Oc1cc2c(-c3cc(N4CCN(c5cnn(C)c5)CC4)ncn3)n[nH]c2cc1F [Example D56] | 2.19 nM
CO[C@H]1CCN(c2cc(-c3n[nH]c4ccc(OC(C)C)cc34)ncn2)C1 [Example D31] | 8.79 nM
CC(C)Oc1ccc2[nH]nc(-c3cc(N4CCN(S(=O)(=O)C5CC5)CC4)ncn3)c2c1 [Example D23] | 5.51 nM
CC(C)Oc1cc2c(-c3cc(N4CC5CCC(C4)O5)ncn3)n[nH]c2cc1F [Example D47] | 14.6 nM
COC1CCCN(c2cc(-c3n[nH]c4ccc(OC(C)C)cc34)ncn2)C1 (stereo not drawn) [Example K4] | 12.7 nM
CC(C)Oc1ccc2[nH]nc(-c3cc(N4CCC(CF)C4)ncn3)c2c1 (stereo not drawn) [Example K15] | 6.9 nM
CC(C)=Cc1ccc2[nH]nc(-c3cc(N4CCN(S(C)(=O)=O)CC4)ncn3)c2c1 [Example S2] | 28.8 nM
CC(C)Oc1ccc2[nH]nc(-c3cc(N4CC(n5cnnc5)C4)ncn3)c2c1 [Example J23] | 20.1 nM
COCCOc1ccc2[nH]nc(-c3cc(N4CCO[C@H](C)C4)ncn3)c2c1 [Example G10] | 42.8 nM

Structure (SMILES) | IC50
COC[C@@H](C)Oc1ccc2[nH]nc(-c3cc(N4CCO[C@H](C)C4)ncn3)c2c1 [Example H3] | 35.5 nM
CCN1CCN(c2cc(-c3n[nH]c4cc(F)c(OC(C)C)cc34)ncn2)CC1 [Example D46] | 2.97 nM
CC(C)Oc1cc2c(-c3cc(N4CCO[C@H](C)C4)ncn3)n[nH]c2cc1F [Example D39] | 2.87 nM
CC(C)Oc1ccc2[nH]nc(-c3cc(N4CCn5nc(C6CC6)nc5C4)ncn3)c2c1 [Example K19] | 18.2 nM
Cn1cc(-c2ccc3[nH]nc(-c4cc(N5CCN6C(=O)OCC6C5)ncn4)c3c2)cn1 (stereo not drawn) [Example M15] | 6.3 nM
Cc1nc2c(o1)CCN(c1cc(-c3n[nH]c4ccc(-c5cnn(C)c5)cc34)ncn1)C2 [Example M14] | 2.8 nM
CC(C)Oc1ccc2[nH]nc(-c3cc(N4CCC4)ncn3)c2c1 [Example J4] | 7.9 nM
CO[C@H]1CCN(c2cc(-c3n[nH]c4ccc(-c5cnn(C)c5)cc34)ncn2)C1 [Example M10] | 2.6 nM
CC(C)=Cc1ccc2[nH]nc(-c3cc(N4CCN(C)C(=O)C4)ncn3)c2c1 [Example S4] | 36.2 nM
CO[C@@H]1CCN(c2cc(-c3n[nH]c4ccc(OC(C)C)cc34)ncn2)C1 [Example D30] | 7.47 nM
CC(C)Oc1cc2c(-c3cc(N4CCN(C)[C@H](C)C4)ncn3)n[nH]c2cc1F [Example D51] | 1.3 nM
CC(C)Oc1cc2c(-c3cc(N4CC[C@@H](N)C4)ncn3)n[nH]c2cc1F [Example D58] | 7.3 nM
CCOc1ccc2[nH]nc(-c3cc(N4CCN(C(C)=O)CC4)ncn3)c2c1 [Example F11] | 18 nM
COCCN(C)c1cc(-c2n[nH]c3ccc(OC(C)C)cc23)ncn1 [Example D19] | 66.5 nM
COC[C@H](C)Oc1ccc2[nH]nc(-c3cc(N4CC5CCC(C4)O5)ncn3)c2c1 [Example H8] | 9.93 nM
Cn1cc(-c2ccc3[nH]nc(-c4cc(N5CCN(CCCO)CC5)ncn4)c3c2)cn1 [Example M25] | 3 nM
COC[C@H](C)Oc1ccc2[nH]nc(-c3cc(N4CCC5(CCC(=O)N5)CC4)ncn3)c2c1 [Example H9] | 4.36 nM
Cn1cc(-c2ccc3[nH]nc(-c4cc(N5CC[C@H](CO)C5)ncn4)c3c2)cn1 [Example M5] | 2.5 nM
Cn1cc(-c2ccc3[nH]nc(-c4cc(N5CC[C@@H](CF)C5)ncn4)c3c2)cn1 [Example M4] | 2.3 nM
COc1ccc2[nH]nc(-c3cc(N4CCNC(=O)C4)ncn3)c2c1 [Example E10] | 101 nM
CC(C)Oc1ccc2[nH]nc(-c3cc(N4CCN(CCO)CC4)ncn3)c2c1 [Example J2] | 7.4 nM
CC(C)Oc1cc2c(-c3cc(N4CCOCC4C)ncn3)n[nH]c2cc1F (stereo not drawn) [Example D40] | 5.54 nM
CC(C)Oc1ccc2[nH]nc(-c3cc(N4CCO[C@H](C)C4)ncn3)c2c1 [Example J9] | 9.2 nM
COC[C@@H](C)Oc1ccc2[nH]nc(-c3cc(N4CCOCC4)ncn3)c2c1 [Example H1] | 56.2 nM
CN1CCN(c2cc(-c3n[nH]c4cc(F)c(-c5cnn(C)c5)cc34)ncn2)CC1=O [Example L9] | 37.7 nM
CC(C)Oc1cc2c(-c3cc(N4C[C@@H](C)N(C)[C@@H](C)C4)ncn3)n[nH]c2cc1F [Example D72] | 1.33 nM

same assay, conditions: Table U

Structure (SMILES) | IC50
CC1(C)CC(=O)C=C(c2ccc3[nH]nc(-c4cc(N5CCOCC5)ncn4)c3c2)C1 [Example U11] | 1.63 nM
c1nc(-c2n[nH]c3ccc(-c4cn[nH]c4)cc23)cc(N2CCOCC2)n1 [Example U16] | 2.3 nM
COc1ccncc1-c1ccc2[nH]nc(-c3cc(N4CCN(C(C)C)CC4)ncn3)c2c1 [Example U23] | 1.26 nM
O=C1C=C(c2ccc3[nH]nc(-c4cc(N5CCOCC5)ncn4)c3c2)CCC1 [Example U17] | 1.63 nM
c1nc(-c2n[nH]c3ccc(-c4ccsc4)cc23)cc(N2CCOCC2)n1 [Example U9] | 36.4 nM
